This note sets out measurements from US20070155679A1, “USE OF BR[…] THE TREATMENT OF […] ASSOCIATED WITH H[…] NOVEL MEDICAMENT COMBINATIONS” (priority 2000, published 2007).

The assay has as its system hypertrophic cardiomyopathy. Put plainly: Cat with severe hypertrophic cardiomyopathy treated with cilobradine. The format is in vivo. To be noted: 0.3 mg/kg per os, 2x daily. The text has this: The new use of the bradycardiac substances according to the invention was investigated with the if channel blocker cilobradine by way of example, using the following method:
The hypertrophic cardiomyopathy in the cat serves as a model for the corresponding disease in humans (Kittleson et al., Circulation 91, 3172-3180 (1999)).

For `COc1ccc(CCN2CCC[C@H](CN3CCc4cc(OC)c(OC)cc4CC3=O)C2)cc1OC` [cilobradine], the “clinical symptoms (relief from pain, normal ECG, return of normal physiological activity pattern)” value (cat with severe hypertrophic cardiomyopathy) was “significant improvement in clinical symptoms”. The “myocardial hypertrophy at follow-up” value (cat, follow-up after one year and after about 2 years' treatment) is “regression in myocardial hypertrophy”.
